The values below come from article PMC9143821, “Design and Synthesis of a Novel 4-aryl-N-(2-alkoxythieno [2,3-b]pyrazine-3-yl)-4-arylpiperazine-1-carboxamide DGG200064 Showed Therapeutic Effect on Colon Cancer through G2/M Arrest” (Pharmaceuticals, 2022).

A word on the GI50: it is the concentration that inhibits growth by half. A low value points to greater sensitivity of the cells. As a reminder, the pKa is the pH at which an ionisable group is half protonated. Read a low pKa as a group that gives up its proton readily.

One data set relates to HCT15. In words: SRB assay, colon cancer cell growth inhibition. The note with it: Homo sapiens, HCT-15, 48 h. It is filed as cell-based. On the procedure: (§1) A series of 4-phenyl-N-(thieno[2,3-b]pyrazin-3-yl)piperazine-1-carboxamides derivatives 7a–7i were tested for the colon cancer cell growth inhibition effect using the SRB assay (Table 2). […] Compounds 7a and 7b, containing chlorine at the C6 position of thieno[2,3-b]pyrazine ring, have weaker anticancer activity than its proton-containing derivatives 7c–7i. On the other hand, 7c has shown higher inhibition activity than 7d with methyl substituents at the C3 and C5 positions of the phenyl ring. […] Substitutions with one fluorine atom in the phenyl ring could not improve the inhibition effect of the compounds 7g–7h.
(§2) The HCT116, HCT8, KM12, HCT15, HT29, COLO-205, SW620 cell line was obtained from the National Cancer Institute (Material Transfer Agreement number: 2702–09). DLD1 cell line was obtained from the Korean cell line bank. Cells were cultured in complete Roswell Park Memorial Institute (RPMI) 1640 medium (Hyclone, South Logan, UT, USA) containing 10% fetal bovine serum (Hyclone, South Logan, UT, USA) in an atmosphere of 5% CO2 and 100% humidity at 37 °C. A small interfering RNA (siRNA) duplex targeting human c-Jun and FBXW7 (Genolution, Seoul, Korea) were introduced into cells using Lipofector-EXT (AptaBio, Yongin, Korea), according to the manufacturer’s instructions. As negative controls, cells were incubated with Lipofector-EXT (AptaBio, Yongin, KOR) and a negative siRNA (Genolution, Seoul, Korea).
(§3) Cells (100 μL containing 5000–10,000 cells/well) were incubated in 96 well microtiter plates. After 24 h, drugs were added (100 μL) to each well and the cultures were incubated for 48 h at 37 °C. The cells were then fixed in TCA (50 μL per well). The plates were incubated for a minimum of 1 h or a maximum of 3 h at 4 °C. The liquid was removed from the plate, which was then rinsed five times with water and allowed to dry at room temperature (rt) for approximately 12–24 h. The fixed cells were stained with 100 μL Sulforhodamine B (SRB) solution for 5 min at rt. After staining, the plate was washed three times with 1% glacial acetic acid and dried at rt for approximately 12–24 h. The SRB was then solubilized in 10 mM Tris buffer, and the absorbance was read at 515 nm. The effect of the drugs was expressed as GI50 (50% growth inhibition).
For orientation: In SRB staining, fixed cells bind dye roughly in proportion to their protein.

The next data set deals with KM12. In words: SRB assay, colon cancer cell growth inhibition. In kind it is cell-based. The note with it: Homo sapiens, 48 h. How it is done:
as §1, §2, §3

A further data set relates to HCT116. In words: SRB assay, colon cancer cell growth inhibition. In kind it is cell-based. The note with it: Homo sapiens, HCT-116; HCT116, SRB, 48 h. How it is done: as §1, §2, §3
In the next data set the test system is Colo205. Kind of data set: SRB assay, colon cancer cell growth inhibition. It is filed as cell-based. The note with it: Homo sapiens, COLO 205, 48 h. How it is done:
as §1, §2, §3

Another data set concerns SW620. In words: SRB assay, colon cancer cell growth inhibition. It is filed as cell-based. The conditions noted are these: Homo sapiens, SW-620, 48 h. How it is done:
as §1, §2, §3

A further data set has as its system HCT8. In words: SRB assay, colon cancer cell growth inhibition. The conditions noted are these: Homo sapiens, HCT-8, 48 h. It is filed as cell-based. On the procedure:
as §1, §2, §3

The subject of another data set is HT29. Kind of data set: SRB assay, colon cancer cell growth inhibition. The conditions noted are these: Homo sapiens, HT-29, 48 h. It is filed as cell-based. How it is done: as §1, §2, §3
The test system of data set [1] is HCT116 mouse tumor models. Kind of data set: HCT116 xenograft mouse tumor model. It is filed as in vivo, nude BALB/c mice. The conditions noted are these: 6 days/week, 21 days. On the procedure: We tested the inhibition effect by DGG200064 in the HCT116 mouse tumor models (Figure 6a). Cultured HCT116 cells were injected subcutaneously near the scapulae of 6-week-old female nude BALB/c mice. Oral administration of DGG200064 (60, 120 mg/kg) began when tumors reached a volume of 100 mm^3 and proceeded for 6 days/week. […] Mice were then injected intraperitoneally with BrdU and anesthetized 2 h later. They were then perfused with PBS and killed. To identify the level of c-Jun by DGG200064, HCT116 tumors harvested from mice were fixed and analyzed by immunohistochemical staining for Hematoxylin and c-Jun. […]
Xenografts were initiated in female Bagg and Albino (BALB)/c nude mice (6–8 weeks old; n = 18). […] The size of the primary tumors was measured every 2–3 days using calipers. Tumor volume was calculated using the formula, v = (A × B2)/2, where […] is the short diameter (mm). […]
The isolated tumors issued were then stained with antibodies against BrdU (1:700), c-Jun (1:50). […] Endogenous peroxidase activity was blocked with hydrogen peroxide, and background staining was blocked with V block solution, the primary antibodies were detected with horseradish […] (HRP)-conjugated polymer and developed with diaminobenzidine (DAB). […] Positively stained nuclei were counted, and the differences between the groups were analyzed using Student’s t-test, p values ≤0.05 were considered significant.

Another data set is described as follows: Permeability. In kind it is in vitro ADME. An excerpt: (§4) Table 4 Physicochemical Properties of the Lead Compounds 7c. | column: 7c
A further data set in a line: pKa determination. In kind it is physicochemical.
From the text: as §4

The structures appear in SMILES notation.

Turning to `COc1cc(OC)cc(N2CCN(C(=O)Nc3nc4sccc4nc3OC)CC2)c1` [Compound 7c, 4-(3,5-Dimethoxyphenyl)-N-(2-methoxythieno[2,3-b]pyrazin-3-yl)piperazine-1-carboxamide], the GI50 was 26 nM in the data set with HCT15; 8 nM with KM12; 12 nM with HCT116; 24 nM in the data set with Colo205; 27 nM with SW620; 54 nM in the data set on HCT8. Also, it took 17 nM to inhibit growth with HT29 by half (GI50). Further, the “c-Jun expression increase in tumors compared to the control group (IHC)” value in [1] (60 mg/kg oral) was 1.2 fold; in data set [1] (120 mg/kg oral), 2 fold. Besides, in the data set “Permeability”, the “Permeability Class” value is on record as “High”. For the same compound, in the data set “Permeability” (PAMPA, read-out: Permeability Pe), the Papp was found to be 29.5 ×10⁻⁶ cm/s. Besides, the pKa in “pKa determination” (first of two values) came out at 2.39; in “pKa determination” (second of two values) it was 11.6.
